Laboratory results taken from ChEMBL document CHEMBL3045550, “Design, synthesis and biological activities of new strobilurin derivatives containing substituted pyrazoles” (2010).

Experiments:
Format in all cases: functional
[1] = system: Tetranychus cinnabarinus; assay: Acaricidal activity against Tetranychus cinnabarinus (carmine spider mite) in kidney bean plants assessed as mortality at 1.25 mg/l after 48 hr relative to control
[2] = system: Tetranychus cinnabarinus; assay: Acaricidal activity against Tetranychus cinnabarinus (carmine spider mite) in kidney bean plants assessed as mortality at 2.5 mg/l after 48 hr relative to control
[3] = system: Tetranychus cinnabarinus; assay: Acaricidal activity against Tetranychus cinnabarinus (carmine spider mite) in kidney bean plants assessed as mortality at 5 mg/l after 48 hr relative to control
[4] = system: Tetranychus cinnabarinus; assay: Acaricidal activity against Tetranychus cinnabarinus (carmine spider mite) in kidney bean plants assessed as mortality at 10 mg/l after 48 hr relative to control
[5] = system: Tetranychus cinnabarinus; assay: Acaricidal activity against Tetranychus cinnabarinus (carmine spider mite) in kidney bean plants assessed as mortality at 20 mg/l after 48 hr relative to control
[6] = system: Tetranychus cinnabarinus; assay: Acaricidal activity against Tetranychus cinnabarinus (carmine spider mite) in kidney bean plants assessed as mortality at 40 mg/l after 48 hr relative to control
[7] = system: Tetranychus cinnabarinus; assay: Acaricidal activity against Tetranychus cinnabarinus (carmine spider mite) in kidney bean plants assessed as mortality at 38 mg/l after 48 hr relative to control
[8] = system: Tetranychus cinnabarinus; assay: Acaricidal activity against Tetranychus cinnabarinus (carmine spider mite) in kidney bean plants assessed as mortality at 150 mg/l after 48 hr relative to control
[9] = system: Tetranychus cinnabarinus; assay: Acaricidal activity against Tetranychus cinnabarinus (carmine spider mite) in kidney bean plants assessed as mortality at 600 mg/l after 48 hr relative to control
[10] = system: Blumeria graminis f. sp. tritici; assay: Antifungal activity against Blumeria graminis f. sp. tritici infected seven-day-old wheat seedlings assessed as disease control at 1.56 mg/l after 7 days relative to control
[11] = system: Blumeria graminis f. sp. tritici; assay: Antifungal activity against Blumeria graminis f. sp. tritici infected seven-day-old wheat seedlings assessed as disease control at 12.5 mg/l after 7 days relative to control
[12] = system: Blumeria graminis f. sp. tritici; assay: Antifungal activity against Blumeria graminis f. sp. tritici infected seven-day-old wheat seedlings assessed as disease control at 400 mg/l after 7 days relative to control
[13] = system: Pseudoperonospora cubensis; assay: Antifungal activity against Pseudoperonospora cubensis infected cucumber leaves assessed as disease control at 3.12 mg/l after 5 days relative to control
[14] = system: Pseudoperonospora cubensis; assay: Antifungal activity against Pseudoperonospora cubensis infected cucumber leaves assessed as disease control at 6.25 mg/l after 5 days relative to control
[15] = system: Pseudoperonospora cubensis; assay: Antifungal activity against Pseudoperonospora cubensis infected cucumber leaves assessed as disease control at 25 mg/l after 5 days relative to control
[16] = system: Pseudoperonospora cubensis; assay: Antifungal activity against Pseudoperonospora cubensis infected cucumber leaves assessed as disease control at 400 mg/l after 5 days relative to control
[17] = system: Botrytis cinerea; assay: Antifungal activity against Botryotinia fuckeliana infected cucumber leaves assessed as disease control at 400 mg/l after 4 days relative to control
[18] = system: Pyricularia oryzae; assay: Antifungal activity against Magnaporthe oryzae infected 12 day old rice plant assessed as disease control at 400 mg/l after 6 days relative to control

Compound	Activity [1] [%]	Activity [2] [%]	Activity [3] [%]	Activity [4] [%]	Activity [5] [%]	Activity [6] [%]	Activity [7] [%]	Activity [8] [%]	Activity [9] [%]	Activity [10] [%]	Activity [11] [%]	Activity [12] [%]	Activity [13] [%]	Activity [14] [%]	Activity [15] [%]	Activity [16] [%]	Activity [17] [%]	Activity [18] [%]
CO/C=C(/C(=O)OC)c1ccccc1COc1c(C)c(-c2ccc(C)cc2C)nn1C	28	36	85	89	100	100	100	100	100	90	100	100	80	98	100	100	50	100
CO/C=C(/C(=O)OC)c1ccccc1COc1c(C)c(-c2cc(C)ccc2C)nn1C [METHYL 2-(2-((3-(2,5-DIMETHYLPHENYL)-1,4-DIMETHYL-1H-PYRAZOL-5-YLOXY)METHYL)PHENYL)-3-METHOXYACRYLATE]	–	–	–	–	–	–	0	20	100	0	50	100	0	0	80	100	50	100
CO/C=C(/C(=O)OC)c1ccccc1COc1c(C)c(-c2ccc(C)c(C)c2)nn1C [METHYL 2-(2-((3-(3,4-DIMETHYLPHENYL)-1,4-DIMETHYL-1H-PYRAZOL-5-YLOXY)METHYL)PHENYL)-3-METHOXYACRYLATE]	–	–	–	–	–	–	0	80	100	70	100	100	30	85	100	100	50	100
CO/C=C(/C(=O)OC)c1ccccc1COc1cc(-c2ccc(C)c(C)c2)nn1C [METHYL 2-(2-((3-(3,4-DIMETHYLPHENYL)-1-METHYL-1H-PYRAZOL-5-YLOXY)METHYL)PHENYL)-3-METHOXYACRYLATE]	–	–	–	–	–	–	0	0	100	80	100	100	35	40	100	100	50	100
CO/C=C(/C(=O)OC)c1ccccc1COc1cc(-c2ccc(Br)cc2)nn1C [METHYL 2-(2-((3-(4-BROMOPHENYL)-1-METHYL-1H-PYRAZOL-5-YLOXY)METHYL)PHENYL)-3-METHOXYACRYLATE]	–	–	–	–	–	–	57	71	100	10	100	100	60	85	100	100	0	70
CCOc1ccc(-c2nn(C)c(OCc3ccccc3/C(=C\OC)C(=O)OC)c2C)cc1 [METHYL 2-(2-((3-(4-ETHOXYPHENYL)-1,4-DIMETHYL-1H-PYRAZOL-5-YLOXY)METHYL)PHENYL)-3-METHOXYACRYLATE]	–	–	–	–	–	–	20	35	100	65	100	100	0	0	50	100	100	100
CCc1ccc(-c2nn(C)c(OCc3ccccc3/C(=C\OC)C(=O)OC)c2C)cc1 [METHYL 2-(2-((3-(4-ETHYLPHENYL)-1,4-DIMETHYL-1H-PYRAZOL-5-YLOXY)METHYL)PHENYL)-3-METHOXYACRYLATE]	–	–	–	–	–	–	30	100	100	0	100	100	20	60	100	100	0	0
CO/C=C(/C(=O)OC)c1ccccc1COc1c(C)c(-c2ccc(C(C)(C)C)cc2)nn1C [METHYL 2-(2-((3-(4-TERT-BUTYLPHENYL)-1,4-DIMETHYL-1H-PYRAZOL-5-YLOXY)METHYL)PHENYL)-3-METHOXYACRYLATE]	–	–	–	–	–	–	0	0	100	0	10	90	0	0	20	95	50	50
CO/C=C(/C(=O)OC)c1ccccc1COc1c(C)c(-c2ccc(OC)cc2)nn1C [METHYL 3-METHOXY-2-(2-((3-(4-METHOXYPHENYL)-1,4-DIMETHYL-1H-PYRAZOL-5-YLOXY)METHYL)PHENYL)ACRYLATE]	–	–	–	–	–	–	0	0	90	95	100	100	55	96	100	100	100	100
CO/C=C(/C(=O)OC)c1ccccc1COc1cc(-c2ccc(Cl)cc2)nn1C [PYRAOXYSTROBIN]	–	–	–	–	–	–	0	0	100	0	75	100	100	100	100	100	100	100
CC(C)(C)c1ccc(CSc2cnn(C(C)(C)C)c(=O)c2Cl)cc1 [PYRIDABEN]	0	12	22	48	57	77	–	–	–	–	–	–	–	–	–	–	–	–
